Reference: patent publication US12286435B2, “Compound having benzo seven-membered ring structure, preparation method therefor, and use thereof” (BIONNA (BEIJING) MEDICAL TECHNOLOGY CO., LTD., priority 2019, dated 2025)
Values joined by “and” are separate entries in the source; they are usually repeats but may differ in a detail not shown here. Equal values may be shown once.

Legend:
BRD4 BD1 protein = BRD4 BD1 protein (Homo sapiens (Human), UniProt O60885); assay: Fluorescence polarization binding affinity (Ki) with BRD4 BD1 protein; settings: fluorescence polarization; Ki calculated from IC50
BRD4 BD2 protein = BRD4 BD2 protein (Homo sapiens (Human), UniProt O60885); assay: Fluorescence polarization binding affinity (Ki) with BRD4 BD2 protein; set-up: BRD4 BD2 Ki: reference not given here; settings: fluorescence polarization; Ki calculated from IC50
[1] = system: multiple myeloma MM.1S cell line; assay: Cell viability (CCK-8), multiple myeloma MM.1S; format: cell-based; settings: Homo sapiens, MM1.S, 96 h, MM.1S cells, 4 days, CCK-8, 50% inhibition of cell growth
Summary of the method: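 Cells (about 3000-5000 per well) exposed to 3-fold serial dilutions of compound for 4 days at 37° C, 5% CO2. CCK-8 added 2-4 h, absorbance at 450 nm, viability normalised to untreated cells after medium-only blank subtraction; IC50 is concentration giving 50% growth inhibition.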

[2] = system: breast cancer MDA-MB-231 cell line; assay: Cell viability (CCK-8), breast cancer MDA-MB-231; format: cell-based; settings: Homo sapiens, 96 h; MDA-MB-231 cells, 4 days, CCK-8, 50% inhibition of cell growth
Procedure: (§1) 3. Determination of cell viability of the compound
(§2) The sample to be tested was dissolved with 100% dimethyl sulfoxide to prepare a 20 mM stock solution of the compound, which was diluted with 100% dimethyl sulfoxide to the highest compound concentration required for the experiment (2.5 mM).
(§3) First, 145 uL of a complete cell culture medium was added to wells B1-G1 of a 96-well flat-bottomed tansparent cell culture plate, and 100 uL of the complete medium was added to wells B2-G12, respectively. Then, 5 uL of the 2.5 mM solution of the compound was added to wells B1-D1 and E1-G1 respectively, and then diluted gradiently by 3-folds to B12-D12 and E12-G12 in sequence. Finally, 50 uL of the solution of the cells to be tested was added to each well, with about 3000-5000 cells per well, and a total volume of 150 uL per well.
(§4) In the experiment, in addition to the tested compound, two other control groups were set up: 1) a control group adding the cells and the complete medium, but without adding the compound; 2) a control group adding the complete medium only, without adding the cells and the compound. The 96-well plate was placed in a 37° C. cell culture incubator containing 5% carbon dioxide for 4 days, added with 15 uL of a CCK-8 reagent per well, and then incubated at 37° C. for 2-4 hours. The 96-well plate was read on a TECAN microplate reader, and the absorbance value at 450 nm wavelength was taken.
(§5) The effect of different concentrations of the compound on cell viability was calculated by the following equation: [absorption value of the experimental group−absorption value of pure cell culture medium without the cells or the compound]/[absorption value of the control group with the tumor cells but no testing compound−absorption value of pure cell culture medium without the cell or the compound]×100%.
(§6) The above data were precessed by software, and the IC50 value was the concentration of the compound corresponding to the 50% inhibition rate of cell growth.
(§7) Based on the above test method of the compound on cell viability, a variety of […] cancer cell lines were tested, using multiple myeloma MM.1S, breast cancer MDA-MB-231 and leukemia MV4-11 cell lines as exemples. Using this test method, the IC50 values of partial compounds in the examples of the present invention measured in multiple myeloma MM.1S, breast cancer MDA-MB-231 cell lines and leukemia MV4-11 cell lines were shown in Table 2.

[3] = system: leukemia MV4-11 cell line; assay: Cell viability (CCK-8), leukemia MV4-11; format: cell-based; settings: Homo sapiens, 96 h; MV4-11 cells, 4 days, CCK-8, 50% inhibition of cell growth
Procedure: as §1, §2, §3, §4, §5, §6, §7

SMILES	Ki (BRD4 BD1 protein)	Ki (BRD4 BD2 protein)	IC50 [1]	IC50 [2]	BRD4 BD2 Ki (BRD4 BD2 protein)	IC50 [3]
COc1ccc2c(c1)C(Nc1ccc(C#N)cc1)CCc1onc(C)c1-2 (centres unmarked) [FA06, 4-(8-methoxy-1-methyl-5,6-dihydro-4H-benzo[6,7]cyclohepta[1,2-d]isoxazol-6-yl)aminobenzonitrile]	83.1 nM	55.9 nM	6.05 nM	89 nM	–	–
Cc1nnn2c1-c1ccc(-c3cnn(C)c3)cc1C(Nc1ccccc1N(C)C)CC2 (centres unmarked) [LB01, N^1,N^1-dimethyl-N^2-(1-methyl-9-(1-methyl-1H-pyrazol-4-yl)-6,7-dihydro-5H-benzo[c][1,2,3]triazolo[1,5-a]azepin-7-yl)benzene-1,2-diamine]	94.8 nM	26.9 nM	4.28 nM	450 nM	–	–
COC(=O)c1ccc(NC2CCn3nnc(C)c3-c3ccc(-c4cnn(C)c4)cc32)cc1 (centres unmarked) [LB37, methyl 4-((1-methyl-9-(1-methyl-1H-pyrazol-4-yl)-6,7-dihydro-5H-benzo[c][1,2,3]triazolo[1,5-a]azepin-7-yl)amino)benzoate]	45 nM	10.9 nM	2.03 nM	43 nM	–	–
CNC(=O)Cc1cccc(NC2CCn3nnc(C)c3-c3ccc(-c4cnn(C)c4)cc32)c1 (centres unmarked) [LC10, N-methyl-2-(3-((1-methyl-9-(1-methyl-1H-pyrazol-4-yl)-6,7-dihydro-5H-benzo[c][1,2,3]triazolo[1,5-a]azepin-7-yl)amino)phenyl)acetamide]	69.3 nM	–	104 nM	–	<Kd	12.8 nM
CNC(=O)Cc1ccccc1NC1CCn2nnc(C)c2-c2ccc(-c3cnn(C)c3)cc21 (centres unmarked) [LC11, N-methyl-2-(2-((1-methyl-9-(1-methyl-1H-pyrazol-4-yl)-6,7-dihydro-5H-benzo[c][1,2,3]triazolo[1,5-a]azepin-7-yl)amino)phenyl)acetamide]	7.8 nM	–	25.2 nM	–	<Kd	15.4 nM
CCN1CC=C(c2ccc3c(c2)C(Nc2ccc(Cl)cc2)CCn2nnc(C)c2-3)CC1 (centres unmarked) [LD23, N-(4-chlorophenyl)-9-(1-ethyl-1,2,3,6-tetrahydropyridin-4-yl)-1-methyl-6,7-dihydro-5H-benzo[c][1,2,3]triazolo[1,5-a]azepin-7-amine 2,2,2-trifluoroacetate]	334 nM	41.5 nM	443 nM	–	–	7.32 nM
Cc1nnn2c1-c1ccc(C3=CCN(C(C)C)CC3)cc1C(Nc1ccc(Cl)cc1)CC2 (centres unmarked) [LD24, N-(4-chlorophenyl)-9-(1-isopropyl-1,2,3,6-tetrahydropyridin-4-yl)-1-methyl-6,7-dihydro-5H-benzo[c][1,2,3]triazolo[1,5-a]azepin-7-amine 2,2,2-trifluoroacetate]	293 nM	21.6 nM	447 nM	–	–	19 nM
Cc1nnn2c1-c1ccc(C3=CCN(C4CCCCC4)CC3)cc1C(Nc1ccc(F)c(Cl)c1)CC2 (centres unmarked) [LD76, N-(3-chloro-4-fluorophenyl)-9-(1-cyclohexyl-1,2,3,6-tetrahydropyridin-4-yl)-1-methyl-6,7-dihydro-5H-benzo[c][1,2,3]triazolo[1,5-a]azepin-7-amine 2,2,2-trifluoroacetate]	1060 nM	10.7 nM and 36.1 nM	879 nM	–	–	106 nM
Cc1nnn2c1-c1ccc(-c3cnn(C)c3)cc1C(Nc1ccc(Cl)cc1)CC2 (centres unmarked) [RA180, N-(4-chlorophenyl)-1-methyl-9-(1-methyl-1H-pyrazol-4-yl)-6,7-dihydro-5H-benzo[c][1,2,3]triazolo[1,5-a]azepin-7-amine]	33.7 nM	7.6 nM	2.34 nM	11 nM	–	–
CCn1cc(-c2ccc3c(c2)C(Nc2ccc(Cl)cc2)CCn2nnc(C)c2-3)cn1 (centres unmarked) [RB05, N-(4-chlorophenyl)-9-(1-ethyl-1H-pyrazol-4-yl)-1-methyl-6,7-dihydro-5H-benzo[c][1,2,3]triazolo[1,5-a]azepin-7-amine]	23.2 nM	5.73 nM	2.32 nM	1 nM	–	< 0.1 nM
Cc1nnn2c1-c1ccc(-c3cnc4[nH]cnc4c3)cc1C(Nc1ccc(Cl)cc1)CC2 (centres unmarked) [RB43, N-(4-chlorophenyl)-9-(3H-imidazo[4,5-b]pyridin-6-yl)-1-methyl-6,7-dihydro-5H-benzo[c][1,2,3]triazolo[1,5-a]azepin-7-amine]	45.8 nM	14 nM	1.1 nM	105 nM	–	–
Cc1nnn2c1-c1ccc(-c3cn(C)nn3)cc1C(Nc1ccc(Cl)cc1)CC2 (centres unmarked) [RB48, N-(4-chlorophenyl)-1-methyl-9-(1-methyl-1H-1,2,3-triazol-4-yl)-6,7-dihydro-5H-benzo[c][1,2,3]triazolo[1,5-a]azepin-7-amine]	45.1 nM	16.5 nM	2.5 nM	65 nM	–	–
Cc1nnn2c1-c1ccc(C3=CCN(C(C)C)CC3)cc1[C@H](Nc1cccc(Cl)c1)CC2 [RE13 (R), (7R)—N-(3-chlorophenyl)-9-(1-isopropyl-1,2,3,6-tetrahydropyridin-4-yl)-1-methyl-6,7-dihydro-5H-benzo[c][1,2,3]triazolo[1,5-a]azepin-7-amine 2,2,2-trifluoroacetate]	1420 nM	14.8 nM	546 nM	–	–	126 nM
